Data reported in PubChem BioAssay AID179 (DTP/NCI, 2004).
pEC50, pIC50: −log10 of the molar value. Values joined by “and” are separate entries in the source; they are usually repeats but may differ in a detail not shown here. Equal values may be shown once. Active and inactive are the calls of the source.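 The calls were made as follows: active = compounds giving half or more protection of infected cells from virus-caused growth loss, again on retest; inactive = the rest.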 Where a SMILES comes first, the peptide text is derived from it.

System: CEM cells HIV-1 protection, formazan growth assay
Assay: NCI AIDS Antiviral Assay
Details: for pIC50: measured here: growth of uninfected CEM cells
How it was run: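 CEM (human) cells, HIV-1 infected vs uninfected, 5-point dosing, formazan growth read-out. Retest threshold 50% protection.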

Structure (SMILES)	pEC50	pIC50	outcome
CC(/C=C/c1ccccc1)=N/NS(=O)(=O)c1ccc(N)cc1	< 3.94	< 3.94	
COc1ccc(/C=C2\C(=O)N(C)C(=O)c3cc(OC)c(OC)cc32)cc1OC	< 4.00	4.29	
COc1c2c(cc3c(CCc4ccccc4)cc(=O)oc13)CCC(C)(C)O2	< 4.84	< 4.84	
Cc1nc2c(=O)[nH]c(=O)nc-2n(CCO)c1C	< 4.00	4.39	
CC(C)CC(N)C(=O)NC(CC(=O)O)C(=O)NC(CCCCN)C(=O)NC(C)C(=O)NC(CO)C(=O)NC(Cc1ccc(O)cc1)C(=O)NC(CO)C(=O)NC(C(=O)NC(CC(N)=O)C(=O)NC(Cc1cnc[nH]1)C(=O)O)C(C)O (centres undefined) (H-LDKASYSTNH-OH; configuration not given here)	< 4.66	< 4.66	
Sc1ccccc1-n1c(-c2ccccc2)ccc1-c1ccccc1	< 3.70	3.82 and 3.81	
Cc1cc2c(C(C)C)c(O)c(O)c(C=Nc3cccc(O)c3)c2c(O)c1-c1c(C)cc2c(C(C)C)c(O)c(O)c(C=Nc3cccc(O)c3)c2c1O		5.09	inactive
COc1ccc(-c2oc3cc(O)c(OC)c(O)c3c(=O)c2OC2OC(CO)C(O)C(O)C2O)cc1 (centres undefined)			inactive
COc1cc(/C=C/c2ccc(O)c(OC)c2)cc(OC)c1	< 3.90	5.67	
CC(C)CC(NC(=O)C(NC(=O)C(CO)NC(=O)C(C)NC(=O)C(CCCN=C(N)N)NC(=O)C(C)NC(=O)CN)C(C)C)C(=O)NC(CO)C(N)=O (centres undefined) (H-GARASVLS-NH2; configuration not given here)			inactive
O=C(N1CCCCC(Cl)(Cl)C1=O)C(Cl)(Cl)Cl	< 3.12	< 3.12	
O=c1c(SCc2ccccc2)c(N2CCOCC2)cnn1-c1ccccc1	< 3.18	3.24	
C=C(c1cc(Br)c(OC)c(C(=O)OC)c1)c1cc(Br)c(OC)c(C(=O)OC)c1	< 4.00	< 4.00	
N#CSCC(Cl)=CCl (mixture of isomers)	< 3.70	4.31	
CC(=O)OCC1OC(n2c(-c3ccccc3)cc(-c3ccco3)c(C#N)c2=O)C(OC(C)=O)C(OC(C)=O)C1OC(C)=O (centres undefined)	< 4.77	< 4.77 and 4.90	
CSC1=NC(=O)CCN1C1OCC(OC(C)=O)C(OC(C)=O)C1OC(C)=O (centres undefined)	< 3.70	3.98	
c1cc2sc1CSCCSCCSC2	< 4.42	< 4.42	
COC1=C(C)C(=O)c2nc(C)ccc2C1=O			inactive
O=[N+]([O-])c1cccc(-c2oc(C=Nc3ccccc3)c([N+](=O)[O-])c2-c2cccc([N+](=O)[O-])c2)c1	< 4.25	< 4.25	

Structure (SMILES)	pEC50	pIC50	outcome
Cc1cc2nc(-c3ccccc3Cl)[nH]c2cc1C	< 4.00	4.49	
O=c1[nH]cc(N=Nc2ccc(S(=O)(=O)Nc3nccs3)cc2)cc1O	< 3.71	3.77	
COc1cnc([C@H]2CCC3[C@@H]4CC=C5C[C@@H](OC(=O)CCC(=O)O)CC[C@]5(C)C4CC[C@@]32C)s1 (some centres undefined)	< 4.29	4.53	
CC1C=C(OC(=O)c2ccccc2)C(=O)C(n2cc(F)c(=O)[nH]c2=O)O1 (centres undefined)			inactive
COC(=O)/C=C/c1c[nH]c2nccnc12	< 3.78	4.27	
COC(=O)CC1(C)CCC2(OC(CC(C)=O)C3C(C)(C)CCC[C@@]32C)O1 (some centres undefined)	< 3.70	3.85	
CC1(CO)CC(O)C(n2cnc3c(N)ncnc32)O1 (centres undefined)	< 5.29	< 5.29	
C=C=C(Sc1ccccc1)C(C)(C)OC(C)=O	< 4.30	4.84	
CC1(C)OCC(C2OC3OC(C)(C)OC3C2=O)O1 (centres undefined)			inactive
O=C1CC2C(=O)N(Cc3ccccc3)C1C(S(=O)(=O)c1ccccc1)C2S(=O)(=O)c1ccccc1 (centres undefined)			inactive
CC1(CCCO)CCCCCCCCCC(C)(CCCO)C1=O (centres undefined)	< 3.70	3.94	
CCOc1cc[n+](C(=C=[N-])C#N)cc1			inactive
OC1CC2CCC(C1)S2 (centres undefined)	< 3.70	< 3.70	
COc1ccc(C(O)C(=O)c2nc3ccc([N+](=O)[O-])cc3[nH]c2=O)cc1 (centres undefined)	3.97	3.89	
COc1cccc(C=O)c1[O-].COc1cccc(C=O)c1[O-].[Co+2]	< 3.73	4.55	
C[PH+](C)CC[PH+](CC[PH+](c1ccccc1)c1ccccc1)c1ccccc1.[C-]#[O+].[C-]#[O+].[C-]#[O+].[Mo] (centres undefined)			inactive
O=[N+]([O-])c1ccc([As](=O)(O)O)c2ccccc12	< 3.70	< 3.70	
COc1c(C(=O)NCCN(CCNC(=O)c2cccc(-c3cccc(C(=O)N(C)C)c3OC)c2OC)CCNC(=O)c2cccc(-c3cccc(C(=O)N(C)C)c3OC)c2OC)cccc1-c1cccc(C(=O)N(C)C)c1OC			inactive
Cc1cc(Cc2cccc3ccccc23)nc2c1ccc1ccccc12	< 3.70	3.96	

Structure (SMILES)	pEC50	pIC50	outcome
C(=N\N=C\c1ccccn1)/c1ccccn1	< 3.70	4.21	
Cc1cccc(O)c(=O)c1			inactive
CN(C)c1cccc2c1C(=O)C=CC21c2ccc(N(C)C)c3c(N(C)C)ccc(c23)C(c2ccccc2)C1c1ccccc1 (centres undefined)	< 4.00	5.15	
CC(C)(C)CC(C)(C)c1cc2c(O)c(c1)Cc1cc(C(C)(C)CC(C)(C)C)cc(c1O)Cc1cc(C(C)(C)CC(C)(C)C)cc(c1O)Cc1cc(C(C)(C)CC(C)(C)C)cc(c1O)Cc1cc(C(C)(C)CC(C)(C)C)cc(c1O)C2	< 5.06	< 5.06	
C[n+]1c(-c2ccc(/C=N/NC(=S)N/N=C/c3ccc(-c4cn5ccccc5[n+]4C)cc3)cc2)cn2ccccc21	< 4.40	4.66	
O=c1[nH]nc(-c2ccccc2)n1/N=C/c1ccccc1Cl	< 3.70	4.13	
COC(=O)c1cc(C(=CC(=O)N[C@@H]2CC[C@@]3(C)[C@@H](CC[C@@H]4[C@@H]3CC[C@]3(C)[C@@H]([C@H](C)CCCC(C)C)CC[C@@H]43)C2)c2cc(Cl)c(OC)c(C(=O)OC)c2)cc(Cl)c1OC	< 4.00	< 4.00	
CCOC(=O)C(Cc1ccc(N=NN(C)C)cc1)NC(=O)CC1c2ccccc2-c2ccccc21 (centres undefined)	< 4.96	5.19	
CC(C)c1ccc(C(=O)c2ccccc2C(=O)O)cc1	< 3.70	< 3.70	
CCCCCc1cc(O)cc2c1Oc1cc(O)cc(C(=O)CCCC)c1C(=O)O2	< 4.25	4.55	
O=C(c1ccccc1)c1nc2ccc(Cl)cc2c2c1CCCO2	< 4.79	< 4.79	
COc1cc(COC(=O)NC(Cc2cccs2)C(=O)O)c([N+](=O)[O-])cc1OC (centres undefined)	< 3.22	3.37	
Cc1nn2c(N)cc(=O)nc2nc1/C=C/c1ccc(N(C)C)cc1	< 3.70	5.37	
C/C(O)=C(/C=N/C(=S)Nc1ccccc1)C(=O)Nc1ccccc1C	< 3.70	3.71	
C[C@H](O)CCC(=O)c1ccoc1	< 2.83	< 2.83	
C[C@H]1CCC/C=C/[C@@H]2C[C@H](OC(=O)CN(C)C)C[C@H]2[C@H](O)/C=C/C(=O)O1	< 5.70	6.47	
CCN(CC)C(=S)S	< 2.84	4.40	
C=CCN(c1cc(OC)c2[nH]c(C(=O)O)c(C)c2c1[N+](=O)[O-])S(C)(=O)=O	< 3.70	< 3.70	
O=S(=O)(O)c1cc(S(=O)(=O)O)c2c(Nc3ccnc4ccccc34)ccc(S(=O)(=O)O)c2c1	< 3.70	< 3.70	
